Measured values published in publication PMC5564600 (Oncotarget, 2017).
Read-outs that look alike come from different tables or passages of the source.

Experiments:
Test in all cases: biochemical
Format in all cases: binding
[1] = biological target: T1, panel of 442 kinases (Homo sapiens, UniProt P00533); details: EGFR; for remaining activity at 1 µM: read-out: % of control at 1 µM
T1 construct: purchased Ambit Biosciences (scanMAXX KINOMEscan)

[2] = biological target: T2, panel of 442 kinases (Homo sapiens, UniProt P21127); details: CDC2L1; for remaining activity at 1 µM: read-out: % of control at 1 µM
T2 construct: purchased Ambit Biosciences (scanMAXX KINOMEscan)

[3] = biological target: T3, panel of 442 kinases (Homo sapiens, UniProt Q8IVH8); details: kinase MAP4K3; for remaining activity at 1 µM: read-out: % of control at 1 µM
T3 construct: purchased Ambit Biosciences (scanMAXX KINOMEscan)
T3 sequence (Q8IVH8 1-894): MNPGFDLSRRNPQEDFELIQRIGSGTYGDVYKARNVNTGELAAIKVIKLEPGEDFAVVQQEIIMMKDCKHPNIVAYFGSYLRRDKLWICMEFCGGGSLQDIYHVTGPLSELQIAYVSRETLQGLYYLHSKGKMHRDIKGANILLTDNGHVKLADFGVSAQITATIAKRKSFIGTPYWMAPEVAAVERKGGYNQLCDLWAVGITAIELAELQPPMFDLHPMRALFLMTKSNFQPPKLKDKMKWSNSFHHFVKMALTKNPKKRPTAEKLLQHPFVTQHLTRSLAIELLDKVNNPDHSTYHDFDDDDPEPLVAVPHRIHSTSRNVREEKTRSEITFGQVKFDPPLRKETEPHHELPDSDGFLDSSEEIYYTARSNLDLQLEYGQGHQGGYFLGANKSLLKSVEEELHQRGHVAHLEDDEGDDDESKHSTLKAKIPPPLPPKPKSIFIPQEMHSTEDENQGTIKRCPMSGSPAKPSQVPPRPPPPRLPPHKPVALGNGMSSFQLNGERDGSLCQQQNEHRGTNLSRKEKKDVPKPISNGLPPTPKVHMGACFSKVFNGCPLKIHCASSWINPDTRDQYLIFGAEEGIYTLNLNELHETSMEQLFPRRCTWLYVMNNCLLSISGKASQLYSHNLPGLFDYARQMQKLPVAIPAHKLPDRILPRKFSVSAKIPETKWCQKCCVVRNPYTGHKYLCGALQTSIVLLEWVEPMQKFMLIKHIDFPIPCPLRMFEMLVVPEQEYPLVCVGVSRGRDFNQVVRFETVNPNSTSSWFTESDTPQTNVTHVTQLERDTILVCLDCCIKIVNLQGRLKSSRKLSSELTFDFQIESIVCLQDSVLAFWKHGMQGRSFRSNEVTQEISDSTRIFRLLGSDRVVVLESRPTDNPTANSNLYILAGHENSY

[4] = biological target: T4, panel of 442 kinases (Homo sapiens, UniProt Q00537); details: kinase PCTK2; for remaining activity at 1 µM: read-out: % of control at 1 µM
T4 construct: purchased Ambit Biosciences (scanMAXX KINOMEscan)

[5] = biological target: T5, panel of 442 kinases (Homo sapiens, UniProt Q13882); details: BRK; for remaining activity at 1 µM: read-out: % of control at 1 µM
T5 construct: purchased Ambit Biosciences (scanMAXX KINOMEscan)

[6] = biological target: T6, panel of 442 kinases (Homo sapiens, UniProt Q9H2K8); details: kinase TAOK3; for remaining activity at 1 µM: read-out: TAOK3 (% of control at 1 µM)
T6 construct: purchased Ambit Biosciences (scanMAXX KINOMEscan)
T6 sequence (Q9H2K8 1-898): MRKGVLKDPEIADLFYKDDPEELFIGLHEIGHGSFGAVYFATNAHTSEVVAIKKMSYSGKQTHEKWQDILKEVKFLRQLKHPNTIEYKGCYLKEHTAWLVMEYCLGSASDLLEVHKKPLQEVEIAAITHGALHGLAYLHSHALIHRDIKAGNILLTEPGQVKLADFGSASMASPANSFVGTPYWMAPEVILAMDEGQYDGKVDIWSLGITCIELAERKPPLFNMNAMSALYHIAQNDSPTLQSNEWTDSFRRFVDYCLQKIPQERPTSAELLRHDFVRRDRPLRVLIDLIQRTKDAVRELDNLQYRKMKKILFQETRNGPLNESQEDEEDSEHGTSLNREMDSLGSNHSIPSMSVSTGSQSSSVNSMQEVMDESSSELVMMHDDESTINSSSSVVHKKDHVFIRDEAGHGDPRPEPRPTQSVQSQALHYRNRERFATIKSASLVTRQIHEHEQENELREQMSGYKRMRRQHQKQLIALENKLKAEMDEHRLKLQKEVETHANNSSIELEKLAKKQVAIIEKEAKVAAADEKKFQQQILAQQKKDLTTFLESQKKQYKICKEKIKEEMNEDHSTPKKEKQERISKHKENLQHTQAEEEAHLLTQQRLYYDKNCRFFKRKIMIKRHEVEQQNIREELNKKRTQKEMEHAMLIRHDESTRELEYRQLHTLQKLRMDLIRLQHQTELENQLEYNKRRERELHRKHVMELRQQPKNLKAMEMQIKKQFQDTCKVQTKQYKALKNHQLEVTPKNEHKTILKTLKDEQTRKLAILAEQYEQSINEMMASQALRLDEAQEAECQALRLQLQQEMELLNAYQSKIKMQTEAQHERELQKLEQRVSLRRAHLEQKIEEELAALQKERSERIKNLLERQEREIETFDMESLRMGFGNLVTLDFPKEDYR

[7] = biological target: T7, panel of 442 kinases (Homo sapiens, UniProt O75676)
T7 construct: purchased Ambit Biosciences (scanMAXX KINOMEscan)

[8] = biological target: T8, panel of 442 kinases (Homo sapiens, UniProt Q99755); details: kinase PIP5K1A; for remaining activity at 1 µM: read-out: % of control at 1 µM
T8 construct: purchased Ambit Biosciences (scanMAXX KINOMEscan)

[9] = biological target: T9, panel of 442 kinases (Homo sapiens, UniProt Q9P286); details: kinase PAK7; for remaining activity at 1 µM: read-out: % of control at 1 µM
T9 construct: purchased Ambit Biosciences (scanMAXX KINOMEscan)

[10] = biological target: T10, panel of 442 kinases (Homo sapiens, UniProt Q8TDR2); details: kinase STK35; for remaining activity at 1 µM: read-out: STK35 (% of control at 1 µM)
T10 construct: purchased Ambit Biosciences (scanMAXX KINOMEscan)

[11] = 10 µM, read-out: % of control at 10 µM
[12] = kinase RPS6KA4(Kin.Dom.1-N-terminal), read-out: RPS6KA4(Kin.Dom.1-N-terminal) (% of control at 1 µM)
[13] = kinase RPS6KA4(Kin.Dom.2-C-terminal), read-out: RPS6KA4(Kin.Dom.2-C-terminal) (% of control at 1 µM)

T10 sequence (Q8TDR2 whole entry): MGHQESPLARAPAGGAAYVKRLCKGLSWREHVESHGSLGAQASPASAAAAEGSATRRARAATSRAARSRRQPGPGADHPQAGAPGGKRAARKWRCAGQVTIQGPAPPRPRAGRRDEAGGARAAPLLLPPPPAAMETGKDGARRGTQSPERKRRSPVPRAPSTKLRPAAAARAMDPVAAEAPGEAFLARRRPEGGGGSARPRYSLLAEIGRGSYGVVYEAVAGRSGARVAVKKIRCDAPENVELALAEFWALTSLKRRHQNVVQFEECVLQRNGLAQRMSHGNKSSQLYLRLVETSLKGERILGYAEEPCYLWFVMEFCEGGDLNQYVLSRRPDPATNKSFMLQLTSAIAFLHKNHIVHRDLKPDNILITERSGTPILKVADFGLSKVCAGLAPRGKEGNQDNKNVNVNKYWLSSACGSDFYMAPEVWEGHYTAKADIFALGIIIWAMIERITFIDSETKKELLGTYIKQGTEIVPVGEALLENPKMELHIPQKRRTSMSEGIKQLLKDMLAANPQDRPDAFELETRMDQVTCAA
T1 sequence (P00533 25-1210): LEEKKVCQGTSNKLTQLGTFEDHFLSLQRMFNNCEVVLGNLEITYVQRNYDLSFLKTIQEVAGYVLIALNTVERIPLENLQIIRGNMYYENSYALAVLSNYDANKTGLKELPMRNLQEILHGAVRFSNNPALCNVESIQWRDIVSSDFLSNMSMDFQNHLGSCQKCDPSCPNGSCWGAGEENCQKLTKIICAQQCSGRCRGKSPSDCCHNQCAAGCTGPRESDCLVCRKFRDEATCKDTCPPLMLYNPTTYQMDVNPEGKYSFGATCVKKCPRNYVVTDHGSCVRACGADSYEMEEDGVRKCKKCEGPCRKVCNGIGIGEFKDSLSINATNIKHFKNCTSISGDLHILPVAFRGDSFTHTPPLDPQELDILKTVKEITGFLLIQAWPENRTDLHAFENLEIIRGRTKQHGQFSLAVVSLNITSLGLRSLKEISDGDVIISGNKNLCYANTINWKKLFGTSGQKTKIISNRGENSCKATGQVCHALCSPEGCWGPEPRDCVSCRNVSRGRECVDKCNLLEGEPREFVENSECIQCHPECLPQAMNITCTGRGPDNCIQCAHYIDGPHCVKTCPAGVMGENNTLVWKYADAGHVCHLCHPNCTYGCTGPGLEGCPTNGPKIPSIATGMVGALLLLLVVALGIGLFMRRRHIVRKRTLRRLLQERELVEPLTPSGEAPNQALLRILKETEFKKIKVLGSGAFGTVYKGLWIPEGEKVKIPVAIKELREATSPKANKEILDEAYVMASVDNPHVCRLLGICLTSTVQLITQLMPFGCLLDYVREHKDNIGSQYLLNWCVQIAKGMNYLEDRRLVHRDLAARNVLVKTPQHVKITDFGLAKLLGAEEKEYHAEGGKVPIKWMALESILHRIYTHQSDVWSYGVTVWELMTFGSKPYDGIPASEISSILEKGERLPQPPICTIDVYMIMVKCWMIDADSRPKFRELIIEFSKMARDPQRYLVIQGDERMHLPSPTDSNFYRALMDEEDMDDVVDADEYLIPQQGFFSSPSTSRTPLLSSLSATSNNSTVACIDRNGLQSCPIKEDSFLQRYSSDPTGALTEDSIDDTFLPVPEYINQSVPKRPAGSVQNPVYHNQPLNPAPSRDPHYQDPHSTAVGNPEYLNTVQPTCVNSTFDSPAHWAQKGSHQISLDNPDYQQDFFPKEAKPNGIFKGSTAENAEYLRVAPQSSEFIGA
T8 sequence (Q99755 whole entry): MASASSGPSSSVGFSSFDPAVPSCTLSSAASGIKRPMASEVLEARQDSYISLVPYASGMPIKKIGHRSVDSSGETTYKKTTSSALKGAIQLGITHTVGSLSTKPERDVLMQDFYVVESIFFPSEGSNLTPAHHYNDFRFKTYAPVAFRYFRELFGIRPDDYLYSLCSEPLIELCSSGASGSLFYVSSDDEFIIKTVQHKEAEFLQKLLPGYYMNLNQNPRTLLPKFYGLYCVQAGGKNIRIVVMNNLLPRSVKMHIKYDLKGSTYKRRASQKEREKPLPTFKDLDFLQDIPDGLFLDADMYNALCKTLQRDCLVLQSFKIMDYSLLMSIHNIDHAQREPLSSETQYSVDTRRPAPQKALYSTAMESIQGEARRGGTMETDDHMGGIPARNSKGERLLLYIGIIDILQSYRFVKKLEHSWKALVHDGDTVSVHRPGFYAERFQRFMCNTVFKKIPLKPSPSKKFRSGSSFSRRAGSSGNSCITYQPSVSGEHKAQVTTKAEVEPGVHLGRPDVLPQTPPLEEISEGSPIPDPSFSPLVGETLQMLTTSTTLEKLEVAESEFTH
T9 sequence (Q9P286 whole entry): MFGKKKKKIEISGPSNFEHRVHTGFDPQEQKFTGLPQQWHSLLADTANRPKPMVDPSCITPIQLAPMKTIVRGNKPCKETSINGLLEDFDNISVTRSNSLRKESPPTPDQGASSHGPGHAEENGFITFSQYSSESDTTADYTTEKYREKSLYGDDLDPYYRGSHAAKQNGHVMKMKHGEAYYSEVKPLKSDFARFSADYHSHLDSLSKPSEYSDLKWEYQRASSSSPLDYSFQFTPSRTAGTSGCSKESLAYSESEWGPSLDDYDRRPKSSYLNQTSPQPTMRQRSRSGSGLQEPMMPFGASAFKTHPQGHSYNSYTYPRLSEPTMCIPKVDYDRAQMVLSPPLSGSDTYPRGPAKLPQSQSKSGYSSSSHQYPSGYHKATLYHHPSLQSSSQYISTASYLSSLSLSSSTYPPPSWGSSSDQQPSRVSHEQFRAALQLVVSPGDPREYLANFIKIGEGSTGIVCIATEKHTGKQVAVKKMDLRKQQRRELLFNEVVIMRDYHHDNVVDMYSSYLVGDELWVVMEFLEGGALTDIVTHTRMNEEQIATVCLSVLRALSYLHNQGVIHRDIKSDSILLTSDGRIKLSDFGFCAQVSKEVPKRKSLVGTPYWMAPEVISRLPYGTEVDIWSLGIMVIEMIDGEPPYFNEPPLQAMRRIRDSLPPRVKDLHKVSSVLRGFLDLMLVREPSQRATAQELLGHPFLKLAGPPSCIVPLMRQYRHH
T2 sequence (P21127 whole entry): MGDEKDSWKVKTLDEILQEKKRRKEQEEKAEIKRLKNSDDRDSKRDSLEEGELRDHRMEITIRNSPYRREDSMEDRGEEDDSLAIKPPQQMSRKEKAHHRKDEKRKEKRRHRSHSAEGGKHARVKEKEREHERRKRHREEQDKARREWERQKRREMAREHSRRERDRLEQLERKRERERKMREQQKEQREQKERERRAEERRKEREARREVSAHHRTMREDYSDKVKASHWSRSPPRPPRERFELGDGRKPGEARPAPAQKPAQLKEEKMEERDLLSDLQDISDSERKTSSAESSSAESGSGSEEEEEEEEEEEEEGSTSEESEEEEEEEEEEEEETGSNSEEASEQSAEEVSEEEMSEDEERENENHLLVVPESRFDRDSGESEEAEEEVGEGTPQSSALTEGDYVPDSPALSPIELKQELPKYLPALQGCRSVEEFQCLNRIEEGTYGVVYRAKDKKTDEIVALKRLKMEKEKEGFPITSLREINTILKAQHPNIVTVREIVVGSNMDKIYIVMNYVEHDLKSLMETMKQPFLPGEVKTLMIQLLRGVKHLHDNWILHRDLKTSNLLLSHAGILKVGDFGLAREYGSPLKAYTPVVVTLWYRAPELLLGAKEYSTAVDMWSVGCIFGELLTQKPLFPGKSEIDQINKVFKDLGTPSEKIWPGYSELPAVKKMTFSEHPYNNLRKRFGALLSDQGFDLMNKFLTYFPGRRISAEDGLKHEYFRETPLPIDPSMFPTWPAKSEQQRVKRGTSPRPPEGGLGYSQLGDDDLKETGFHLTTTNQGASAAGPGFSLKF
T5 sequence (Q13882 whole entry): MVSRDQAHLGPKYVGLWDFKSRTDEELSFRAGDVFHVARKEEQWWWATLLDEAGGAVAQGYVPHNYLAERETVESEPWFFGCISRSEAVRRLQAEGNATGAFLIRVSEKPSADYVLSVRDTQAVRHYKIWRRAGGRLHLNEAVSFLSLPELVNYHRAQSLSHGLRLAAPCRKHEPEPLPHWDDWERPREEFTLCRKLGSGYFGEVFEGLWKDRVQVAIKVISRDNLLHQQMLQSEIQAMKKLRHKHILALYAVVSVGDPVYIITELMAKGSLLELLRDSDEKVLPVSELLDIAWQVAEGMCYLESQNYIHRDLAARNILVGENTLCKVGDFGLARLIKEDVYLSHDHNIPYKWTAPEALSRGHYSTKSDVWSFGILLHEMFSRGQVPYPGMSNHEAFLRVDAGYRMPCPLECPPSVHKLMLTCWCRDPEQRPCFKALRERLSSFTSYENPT
T7 sequence (O75676 whole entry): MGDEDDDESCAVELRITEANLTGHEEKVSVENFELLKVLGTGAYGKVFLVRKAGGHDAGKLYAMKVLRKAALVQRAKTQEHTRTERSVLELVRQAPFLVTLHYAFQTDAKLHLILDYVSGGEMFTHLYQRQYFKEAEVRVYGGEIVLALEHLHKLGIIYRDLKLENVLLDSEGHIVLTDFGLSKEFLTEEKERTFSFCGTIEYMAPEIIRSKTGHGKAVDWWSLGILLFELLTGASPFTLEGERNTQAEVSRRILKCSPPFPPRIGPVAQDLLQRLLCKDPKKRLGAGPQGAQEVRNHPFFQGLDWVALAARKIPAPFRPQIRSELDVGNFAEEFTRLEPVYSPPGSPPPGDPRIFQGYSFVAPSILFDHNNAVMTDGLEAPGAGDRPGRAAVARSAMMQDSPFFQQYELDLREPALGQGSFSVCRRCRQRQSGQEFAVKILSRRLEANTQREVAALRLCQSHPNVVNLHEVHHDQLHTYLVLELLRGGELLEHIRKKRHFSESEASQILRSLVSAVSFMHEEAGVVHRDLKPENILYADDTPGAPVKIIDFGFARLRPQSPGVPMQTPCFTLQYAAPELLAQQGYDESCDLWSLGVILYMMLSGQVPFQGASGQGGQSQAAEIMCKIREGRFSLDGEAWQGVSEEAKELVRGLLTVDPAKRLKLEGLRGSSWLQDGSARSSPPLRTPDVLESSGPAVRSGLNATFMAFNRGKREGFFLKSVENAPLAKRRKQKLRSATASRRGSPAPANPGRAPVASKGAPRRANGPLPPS

SMILES	remaining activity at 1 µM [1]	remaining activity at 1 µM [2]	remaining activity at 1 µM [3]	remaining activity at 1 µM [4]	remaining activity at 1 µM [5]	remaining activity at 1 µM [6]	remaining activity at 1 µM [7, 12]	remaining activity at 1 µM [7, 13]	remaining activity at 1 µM [8]	remaining activity at 1 µM [9]	remaining activity at 1 µM [10]	also measured
Nc1cc(C(F)(F)F)c(-c2cc(N3CCOCC3)nc(N3CCOCC3)n2)cn1 [Buparlisib]	83%	85%	93%	87%	100%	89%	83%	94%	100%	78%	99%	remaining activity at 10 µM [1, 11]: 100%; remaining activity at 10 µM [2, 11]: 92%; remaining activity at 10 µM [3, 11]: 81%; remaining activity at 10 µM [4, 11]: 69%; remaining activity at 10 µM [5, 11]: 100%; remaining activity at 10 µM ([6]; 10 µM, read-out: TAOK3 (% of control at 10 µM)): 78%; remaining activity at 10 µM ([7]; kinase RPS6KA4(Kin.Dom.1-N-terminal), read-out: RPS6KA4(Kin.Dom.1-N-terminal) (% of control at 10 µM)): 100%; remaining activity at 10 µM ([7]; kinase RPS6KA4(Kin.Dom.2-C-terminal), read-out: RPS6KA4(Kin.Dom.2-C-terminal) (% of control at 10 µM)): 100%; remaining activity at 10 µM [8, 11]: 100%; remaining activity at 10 µM [9, 11]: 69%; remaining activity at 10 µM ([10]; 10 µM, read-out: STK35 (% of control at 10 µM)): 98%
Cn1c(=O)n(-c2ccc(C(C)(C)C#N)cc2)c2c3cc(-c4cnc5ccccc5c4)ccc3ncc21 [Dactolisib, 2-methyl-2-[4-(3-methyl-2-oxo-8-quinolin-3-yl-2,3-dihydroimidazo[4,5-c]quinolin-1-yl)-phenyl] propionitrile]	80%	100%	30%	100%	90%	100%	100%	100%	59%	73%	73%	
COc1ncc(-c2ccc3nccc(-c4ccnnc4)c3c2)cc1NS(=O)(=O)c1ccc(F)cc1F [Omipalisib]	86%	96%	85%	100%	91%	100%	100%	97%	100%	100%	100%	
FC(F)c1nc2ccccc2n1-c1nc(N2CCOCC2)nc(N2CCOCC2)n1 [ZSTK474, 2-(difluoromethyl)-1-[4,6-di(4-morpholinyl)-1,3,5-triazin-2-yl]-1H-benzimidazole]	94%	88%	87%	100%	91%	92%	100%	100%	100%	100%	89%	
